This note sets out measurements from patent publication US12071596B2, “Metal working fluids biocide” (Dow Global Technologies LLC, priority 2021, dated 2024).

In this experiment the test system is mixed microbial inoculum. The experiment in a line: Microbial growth inhibition test (challenge test) in diluted metalworking fluid. Type of experiment: cell-based. The settings on record: 0.91 wt. % amine in diluted metalworking fluid, 30° C.; for Challenge Test Results 2nd dose Day 14: 2nd dosing 0.5 ml mixed inoculum, read at Day 14; for Challenge Test Results 3rd dose Day 21: 3rd dosing 1 ml mixed inoculum, read at Day 21; for Challenge Test Results 4th dose Day 28: 4th dosing 1 ml mixed inoculum, read at Day 28; for Challenge Test Results 5th dose Day 35: 5th dosing 3 ml mixed inoculum, read at Day 35; for Challenge Test Results 1st dose Day 7: 50 g sample, 1st dosing 0.5 ml mixed inoculum, read at Day 7. Here is the method: Test 1—Microbial Growth Inhibition Test
To test the novel disclosed microbial growth control agent the diluted metal working fluid shown in Table 1 is mixed with the various ether amines listed in Table 2. Firstly, using 250 mL glass beaker to prepare 100 g the basic diluted metalworking fluid with the recipe in Table 1 except amine ingredient, stirring for getting clear solution. Repeating the first step to get 8 basic diluted metalworking fluid solutions. Secondly, adding every kind of amine or amine combination from Table 2 as comparative example 1-2 and example 1-6. Thirdly, 50 g the comparative example 1-2 and example 1-6 into 8 petri dishes with a diameter of 10 cm and dosed with 0.5 ml of mixed microbial inoculum. Measuring the microbial growth in the petri dishes after 7 days and repeating to dose the mixed microbial inoculum and measuring them in 5 times. For the first and second dosing, 0.5 ml mixed inoculum is used; in third and fourth dosing, 1 ml mixed inoculum is used; and in the fifth dosing, 3 ml mixed inoculum is used The MWF microbial inoculum was prepared by adding 0.1 mL of each bacterial overnight broth culture and 1.0 mL of each yeast broth culture to the 10 mL of mold suspension and blending. The microbial strains used in this experiment are listed in Table 3 below (8 bacteria, 2 molds and 2 fungi). These strains were cultivated separately in nutrient broth and then blend them together. The mixed strains were then injected into each tested MWF and amine sample and mixed well.
50 grams of each of the MWF treated with amine samples (e.g., Examples 1-5 and Comparative Examples 1-2) were dosed with 0.5 ml of mixed microbial inoculum on Day 0 of this experiment. This inoculation introduces around […] colony forming units per milliliter of sample, (CFU/ml) of microorganisms.
The mixed inoculated samples where then incubated at 30° C. to determine the biocidal effect of the tested amines on the microbes. After seven days, the number of microorganisms surviving in the petri dish was observed and if the colony growth was less than 10, it was considered as PASS. After measuring the number of surviving microorganisms, another round of dosing with the mixed microbial inoculum was complete. The step of observation and subsequent dosing was done 5 times to challenge the microbial growth inhibition capabilities of the tested examples. For the first and second dosing, 0.5 ml mixed inoculum was used; in third and fourth dosing, 1 ml mixed inoculum was used; and in the fifth dosing, 3 ml mixed inoculum is used.

On to `CCCCOCC(C)N` (centres unmarked) [Example 2, 1-butoxy-2-propanamine], for which the “Challenge Test Results 2nd dose Day 14” value is given as “Pass (if the colony growth was less than 10, it was considered as PASS)”; the “Challenge Test Results 3rd dose Day 21” value is on record as “Pass (if the colony growth was less than 10, it was considered as PASS)”; the “Challenge Test Results 4th dose Day 28” value was “Pass (if the colony growth was less than 10, it was considered as PASS)”; the “Challenge Test Results 5th dose Day 35” value is “Pass (if the colony growth was less than 10, it was considered as PASS)”. In addition, the “Challenge Test Results 1st dose Day 7” value was “Pass (if the colony growth was less than 10, it was considered as PASS)”.
For the compound `CCCOCC(C)OCC(C)N` (centres unmarked) [Example 6, 1-(1-methyl-2-propoxyethoxy)-2-propanamine], the “Challenge Test Results 2nd dose Day 14” value is on record as “Pass (if the colony growth was less than 10, it was considered as PASS)”; the “Challenge Test Results 3rd dose Day 21” value is “Pass (if the colony growth was less than 10, it was considered as PASS)”; the “Challenge Test Results 4th dose Day 28” value was “Pass (if the colony growth was less than 10, it was considered as PASS)”; the “Challenge Test Results 5th dose Day 35” value is on record as “Pass (if the colony growth was less than 10, it was considered as PASS)”. The “Challenge Test Results 1st dose Day 7” value is “Pass (if the colony growth was less than 10, it was considered as PASS)”.
`CCCOCC(C)OCC(C)OCC(C)N` (centres unmarked) [Example 4, 1-[1-methyl-2-(1-methyl-2-propoxyethoxy)ethoxy]-2-propanamine]: the “Challenge Test Results 2nd dose Day 14” value is reported as “Pass (if the colony growth was less than 10, it was considered as PASS)”; the “Challenge Test Results 3rd dose Day 21” value was “Pass (if the colony growth was less than 10, it was considered as PASS)”; the “Challenge Test Results 4th dose Day 28” value is given as “Pass (if the colony growth was less than 10, it was considered as PASS)”; the “Challenge Test Results 5th dose Day 35” value was “Pass (if the colony growth was less than 10, it was considered as PASS)”. Moreover, the “Challenge Test Results 1st dose Day 7” value is given as “Pass (if the colony growth was less than 10, it was considered as PASS)”.
With `CC(C)(N)CO` [compound 2, 2-amino-2-methyl-1-propanol, reference compound], the “Challenge Test Results 2nd dose Day 14” value is “Pass (if the colony growth was less than 10, it was considered as PASS)”; the “Challenge Test Results 3rd dose Day 21” value is on record as “Pass (if the colony growth was less than 10, it was considered as PASS)”; the “Challenge Test Results 4th dose Day 28” value is given as “Pass (if the colony growth was less than 10, it was considered as PASS)”; the “Challenge Test Results 5th dose Day 35” value was “Pass (if the colony growth was less than 10, it was considered as PASS)”. In addition, the “Challenge Test Results 1st dose Day 7” value is “Pass (if the colony growth was less than 10, it was considered as PASS)”.
In the case of `COCC(C)N` (centres unmarked) [Example 1, 1-methoxy-2-propanamine], the “Challenge Test Results 2nd dose Day 14” value was “Pass (if the colony growth was less than 10, it was considered as PASS)”; the “Challenge Test Results 3rd dose Day 21” value is reported as “Pass (if the colony growth was less than 10, it was considered as PASS)”; the “Challenge Test Results 4th dose Day 28” value was “Pass (if the colony growth was less than 10, it was considered as PASS)”; the “Challenge Test Results 5th dose Day 35” value is given as “Pass (if the colony growth was less than 10, it was considered as PASS)”. Besides, the “Challenge Test Results 1st dose Day 7” value is “Pass (if the colony growth was less than 10, it was considered as PASS)”.
On to `CCCCOCC(C)OCC(C)N` (centres unmarked) [Example 5, 2-propanamine, 1-(2-butoxy-1-methylethoxy)-], for which the “Challenge Test Results 2nd dose Day 14” value is “Pass (if the colony growth was less than 10, it was considered as PASS)”; the “Challenge Test Results 3rd dose Day 21” value is “Pass (if the colony growth was less than 10, it was considered as PASS)”; the “Challenge Test Results 4th dose Day 28” value was “Pass (if the colony growth was less than 10, it was considered as PASS)”; the “Challenge Test Results 5th dose Day 35” value is recorded as “Pass (if the colony growth was less than 10, it was considered as PASS)”. Moreover, the “Challenge Test Results 1st dose Day 7” value was “Pass (if the colony growth was less than 10, it was considered as PASS)”.
In the case of `CCCCOCCN` [Example 3, 2-butoxy-ethanamine], the “Challenge Test Results 2nd dose Day 14” value is “Pass (if the colony growth was less than 10, it was considered as PASS)”; the “Challenge Test Results 3rd dose Day 21” value is given as “Pass (if the colony growth was less than 10, it was considered as PASS)”; the “Challenge Test Results 4th dose Day 28” value was “Pass (if the colony growth was less than 10, it was considered as PASS)”; the “Challenge Test Results 5th dose Day 35” value is recorded as “Pass (if the colony growth was less than 10, it was considered as PASS)”. The “Challenge Test Results 1st dose Day 7” value is “Pass (if the colony growth was less than 10, it was considered as PASS)”.
